Data reported in patent US20240400579A1, “SPIROCYCLIC MODULATORS OF CHOLESTEROL BIOSYNTHESIS AND THEIR USE FOR PROMOTING REMYELINATION” (GENENTECH, INC., priority 2021, published 2024).

Tests used:
[1] = test system: zymostenol accumulation in EpiSC-derived OPCs (EBP); experiment: GC/MS-based sterol profiling, zymostenol accumulation; assay type: cell-based, mouse; settings: Mus musculus, 24 h, 8 doses from 0.15 nM to 333 nM, read-out: mZymo GCMS EC50
Summary of the method: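 EpiSC-derived mouse OPCs plated at 100,000 cells/well in N2B27 without growth factors and treated 24 h. Sterols extracted, silylated with BSTFA and measured by GC/MS (EI, full scan), quantified against cholesterol-d7. Zymostenol normalized to levels after 24 h with 100 nM positive control reference.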

EpiSC-derived OPCs = experiment: In vitro phenotypic screening of OPCs, MBP high-content imaging; assay type: cell-based, mouse; settings: Mus musculus, 72 h, percentage of MBP+ oligodendrocytes; 3 days; 0.5 nM to 1000 nM; read-out: mOPC EC50
Summary of the method: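 Mouse EpiSC-derived OPCs seeded without growth factors and exposed 3 days at 37° C. to 8-point doses, 1000 nM to 0.5 nM final. Fixed cells stained for MBP and DAPI; high-content imaging gave percentage MBP+ oligodendrocytes, with EC50 from Hill-equation fit.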

| Compound | EC50 [1] | EC50 (EpiSC-derived OPCs) |
| --- | --- | --- |
| C[C@@H](CN1CCC2(CC1)CS(=O)(=O)C2)Oc1ccc(F)c(F)c1 (single isomer, unassigned) [221A*] | 1.6 nM | 4.9 nM |
| CC(C)(CN1CC[C@@]2(CCS(=O)(=O)C2)C1)Oc1ccc(C(F)(F)F)cc1 (single isomer, unassigned) [Compound 141A] | 5.5 nM | 21 nM |
| C[C@@H](Cc1cnc(C(F)(F)F)nc1)CN1CCC2(C1)CS(=O)(=O)C2 (single isomer, unassigned) [Compound 145A] | 8.1 nM | 69 nM |
| CC(C)(CN1CCC2(C1)CS(=O)(=O)C2)Oc1ccc(C2CCC2)cc1 [Example 129, 6-(2-(4-Cyclobutylphenoxy)-2-methylpropyl)-2-thia-6-azaspiro[3.4]octane-2,2-dioxide] | 19 nM | 190 nM |
| CC(C)(CN1CCC2(C1)CS(=O)(=O)C2)Oc1cnc(C(F)(F)F)nc1 [Example 144, 6-(2-Methyl-2-((2-(trifluoromethyl)pyrimidin-5-yl)oxy)propyl)-2-thia-6-azaspiro[3.4]octane-2,2-dioxide] | 80 nM | 390 nM |
| C[C@H](Cc1ccc(C(F)(F)F)cc1)CN1CCC2(C1)CS(=O)(=O)C2 (single isomer, unassigned) [114B*] | 0.82 nM | 0.72 nM |
| CC(C)(Cc1ccc(C2CCC(F)(F)CC2)c(Cl)c1)CN1CCC2(C1)CS(=O)(=O)C2 [Example 139, 6-(3-(3-Chloro-4-(4,4-difluorocyclohexyl)phenyl)-2,2-dimethylpropyl)-2-thia-6-azaspiro[3.4]octane 2,2-dioxide] | 1.6 nM | 0.46 nM |
| CC(C)(CN1CCC2(C1)CS(=O)(=O)C2)Oc1cccc(C(F)(F)F)c1 [Example 130, 6-(2-Methyl-2-(3-(trifluoromethyl)phenoxy)propyl)-2-thia-6-azaspiro[3.4]octane-2,2-dioxide] | 2.9 nM | 10 nM |
| O=S1(=O)CCC2(CC1)CN(CCOc1ccc(C(F)(F)F)cc1)C2 [Example 201, 2-(2-(4-(Trifluoromethyl)phenoxy)ethyl)-7-thia-2-azaspiro[3.5]nonane 7,7-dioxide] | 3.2 nM | 5.5 nM |
| C[C@@H](Cc1ccc(C(F)(F)F)nc1)CN1CCC2(C1)CS(=O)(=O)C2 (single isomer, unassigned) [118A*] | 2.4 nM | 8.5 nM |
| O=S1(=O)CC2(CCN(CC3(Cc4ccc(C(F)(F)F)nc4)CC3)C2)C1 [Example 157, 6-((1-((6-(Trifluoromethyl)pyridin-3-yl)methyl)cyclopropyl)methyl)-2-thia-6-azaspiro[3.4]octane 2,2-dioxide] | 12 nM | 9.4 nM |
| O=S1(=O)CC2(CCN(CCOc3ccc(C(F)(F)F)nc3)CC2)C1 [Compound 230, 7-(2-((6-(Trifluoromethyl)pyridin-3-yl)oxy)ethyl)-2-thia-7-azaspiro[3.5]nonane 2,2-dioxide] | 11 nM | 22 nM |
| C[C@H](Cc1cnc(C(F)(F)F)nc1)CN1CCC2(CC1)CS(=O)(=O)C2 (single isomer, unassigned) [215B*] | 17 nM | 51 nM |
| CC(C)(CN1CCC2(CC1)CS(=O)(=O)C2)Oc1ccc(C(F)(F)F)cc1 [Example 138, 7-(2-Methyl-2-(4-(trifluoromethyl)phenoxy)propyl)-2-thia-7-azaspiro[3.5]nonane 2,2-dioxide] | 1 nM | 2.3 nM |
| CC(C)(CN1CCC2(C1)CS(=O)(=O)C2)Oc1ccc(C(F)(F)F)nc1 [Example 135, 6-(2-Methyl-2-((6-(trifluoromethyl)pyridin-3-yl)oxy)propyl)-2-thia-6-azaspiro[3.4]octane-2,2-dioxide] | 32 nM | 140 nM |
| CC(Cc1ccc(C2CCC2)cc1)CN1CCC2(C1)CS(=O)(=O)C2 (racemic) [Compound 109A, 6-(3-(4-cyclobutylphenyl)-2-methylpropyl)-2-thia-6-azaspiro[3.4]octane 2,2-dioxide] | 1.6 nM | 1.8 nM |
| COC(Cc1ccc(C(F)(F)F)cc1)CN1CCC2(C1)CS(=O)(=O)C2 (racemic) [Example 143, (S)-6-(2-Methoxy-3-(4-(trifluoromethyl)phenyl)propyl)-2-thia-6-azaspiro[3.4]octane 2,2-dioxide and (R)-6-(2-methoxy-3-(4-(trifluoromethyl)phenyl)propyl)-2-thia-6-azaspiro[3.4]octane 2,2-dioxide] | 2.8 nM | 26 nM |
| C[C@@H](Cc1cnc(C(F)(F)F)nc1)CN1CCC2(CC1)CS(=O)(=O)C2 (single isomer, unassigned) [215A*] | 13 nM | 23 nM |
| C[C@@H](Cc1ccc(C(F)F)cc1)CN1CCC2(C1)CS(=O)(=O)C2 (single isomer, unassigned) [Compound 128A] | 23 nM | 370 nM |
| CC(C)(Cc1ccc(C(F)(F)F)nc1)CN1CCC2(C1)CS(=O)(=O)C2 [Example 140, 6-(2,2-Dimethyl-3-(6-(trifluoromethyl)pyridin-3-yl)propyl)-2-thia-6-azaspiro[3.4]octane-2,2-dioxide] | 2.1 nM | 5 nM |
| O=S1(=O)CC2(CCN(CC[C@H](F)c3ccc(C(F)(F)F)cc3)C2)C1 (single isomer, unassigned) [Compound 122B] | 1.2 nM | 2.1 nM |
| CC(C)(Cc1ccc(C(F)(F)F)nc1)CN1CC[C@@]2(CCS(=O)(=O)C2)C1 (single isomer, unassigned) [Compound 148B] | 7.2 nM | 73 nM |
| O=S1(=O)CC2(CCN(CCOc3ccc(C(F)(F)F)cc3)C2)C1 [Compound 112, 6-(2-(4-(Trifluoromethyl)phenoxy)ethyl)-2-thia-6-azaspiro[3.4]octane-2,2-dioxide] | 1.3 nM | 33 nM |
| CCC(C)(C)c1ccc(CC(C)CN2CCC3(C2)CS(=O)(=O)C3)cc1 (racemic) [Compound 107, 6-(2-Methyl-3-(4-(tert-pentyl)phenyl)propyl)-2-thia-6-azaspiro[3.4]octane 2,2-dioxide] | 9.5 nM | 22 nM |
| C[C@H](Cc1ccnc(C(F)(F)F)c1)CN1CCC2(C1)CS(=O)(=O)C2 (single isomer, unassigned) [Compound 126B] | 14 nM | 230 nM |
| CC(C)(CN1CCC2(C1)CS(=O)(=O)C2)Oc1ccc(OC(F)(F)F)cc1 [Example 136, 6-(2-Methyl-2-(4-(trifluoromethoxy)phenoxy)propyl)-2-thia-6-azaspiro[3.4]octane 2,2-dioxide] | 3.6 nM | 12 nM |
| C[C@@H](Cc1ccc(C(F)(F)F)cc1)CN1CCC2(C1)CS(=O)(=O)C2 (single isomer, unassigned) [114A*] | 0.37 nM | 2.4 nM |
| CC(C)(CN1CCC2(C1)CS(=O)(=O)C2)Oc1cccc(OC(F)(F)F)c1 [Example 131, 6-(2-Methyl-2-(3-(trifluoromethoxy)phenoxy)propyl)-2-thia-6-azaspiro[3.4]octane 2,2-dioxide] | 1.6 nM | 7.8 nM |
| CC(C)(CN1CC[C@]2(CCS(=O)(=O)C2)C1)Oc1ccc(C(F)(F)F)cc1 (single isomer, unassigned) [Compound 141B] | 49 nM | 480 nM |
| C[C@@H](Cc1ccnc(C(F)(F)F)c1)CN1CCC2(C1)CS(=O)(=O)C2 (single isomer, unassigned) [Compound 126A] | 3.8 nM | 10 nM |
